Patent US20240197756A1, “METHODS OF TREATMENT WITH NEUROACTIVE STEROIDS” (priority 2021, published 2024)

Tests used:
harmaline-induced tremor = experiment: rHIT model, coadministration of Compound 1 and Compound 2; type: in vivo, rat; conditions: Compound 2 p.o. 60 min before harmaline
Protocol: Rat Harmaline Induced Tremor (rHIT): The rHIT model was used to assess the impact of the combination of Compound 1 and Compound 2 on reducing the symptoms of tremor. Male SD rats (SLAC, Shanghai, China) weighing about 250 g at the time of testing were housed in a 12:12 light-dark cycle room throughout the study, with the lights on from 5 a.m. to 5 p.m, and fed ad libitum. […]
The rHIT methods described in Example 5 were used. […] After the 20-minute baseline recording, rats were dosed with harmaline and the post-harmaline effect was measured for 20 minutes. […]

[1] = tested on: GABAA receptors in the brain; conditions: cited from earlier work; for power of the alpha-band frequency (qEEG): comparator GABAA PAMs, previously shown (FIG. 7); for beta-band frequency (qEEG): comparator marketed GABAA PAMs, previously shown
[2] = tested on: extrasynaptic form of GABAA receptors; conditions: cited from earlier work
[3] = Khodadoustan et al. (2017); cited from earlier work

Compound | power of the alpha-band frequency (qEEG) [1] | beta-band frequency (qEEG) [1] | other results
CC(C)(C)NC(=O)CN1CCC(CNC(=O)c2cc(F)cc(Cl)c2)CC1 [Compound 2, N-((1-(2-(tert-butylamino)-2-oxoethyl)piperidine-4-yl)methyl)-3chloro-5-fluorobenzamide] |  |  | effect on tremor (harmaline-induced tremor): tremor-reducing effects
O=C1Nc2ccc(Cl)cc2C(c2ccccc2Cl)=NC1O (centres unmarked) [lorazepam] | decrease | Increases | 
CC(=O)[C@H]1CC[C@H]2[C@@H]3CC[C@H]4C[C@H](O)CC[C@]4(C)[C@H]3CC[C@]12C [allopregnanolone] | decrease | Increases | potency at synaptic and extrasynaptic receptors [2]: equipotent
CCOC(=O)C1=C(COCCN)NC(C)=C(C(=O)OC)C1c1ccccc1Cl (centres unmarked) [amlodipine besylate] |  |  | Cmax, evening administration compared to morning dosing [3]: increased; Tmax, evening administration compared to morning dosing [3]: reduced
